Assay results as given in ChEMBL document CHEMBL1201862, “PubChem BioAssay data set” (2004).
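How tested: cells in 96-well plates exposed to compound for 48 hours at five concentrations. GI50 marks 50% less growth.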 The source made the active and inactive calls. Cut-off read from the data, not from the text of the source: active = GI50 up to about 1.1 µM and inactive = higher.

Key:
Experiment in all cases: DTP human tumour cell line panel, 48 h
[1] = test system: DU-145
[2] = test system: ACHN
[3] = test system: HCT-15
[4] = test system: HOP-62
[5] = test system: HCC 2998
[6] = test system: M14
[7] = test system: CAKI-1
[8] = test system: PC-3
[9] = test system: OVCAR-8
[10] = test system: EKVX
[11] = test system: HT-29
[12] = test system: UO-31
[13] = test system: SK-OV-3
[14] = test system: MDA-N
[15] = test system: SF-539
[16] = test system: IGROV-1
[17] = test system: SW-620
[18] = test system: HCT-116
[19] = test system: A498
[20] = test system: SN12C
[21] = test system: Malme-3M
[22] = test system: SK-MEL-2
[23] = test system: KM12
[24] = test system: NCI-H522
[25] = test system: T47D
[26] = test system: RXF 393
[27] = test system: SK-MEL-28
[28] = test system: SNB-19
[29] = test system: NCI-H460
[30] = test system: A549
[31] = test system: NCI-H226
[32] = test system: HL-60
[33] = test system: HOP-92
[34] = test system: TK-10
[35] = test system: U-251
[36] = test system: SNB-75
[37] = test system: SK-MEL-5
[38] = test system: OVCAR-4
[39] = test system: UACC-62
[40] = test system: 786-0
[41] = test system: LOX IMVI
[42] = test system: SR
[43] = test system: Hs-578T
[44] = test system: UACC-257
[45] = test system: OVCAR-5
[46] = test system: OVCAR-3
[47] = test system: COLO 205
[48] = test system: NCI/ADR-RES
[49] = test system: MCF7
[50] = test system: MDA-MB-231
[51] = test system: SF-268
[52] = test system: MDA-MB-435
[53] = test system: BT-549
[54] = test system: K562
[55] = test system: MOLT-4
[56] = test system: CCRF-CEM
[57] = test system: SF-295
[58] = test system: RPMI-8226
[59] = test system: NCI-H23

Cn1c2c(c3ccccc31)CCN1OCC=C[C@@H](C(=O)O)[C@@H]21
GI50 [1]: > 100 µM (inactive)
GI50 [2]: > 100 µM (inactive)
GI50 [3]: > 100 µM
GI50 [4]: > 100 µM (inactive)
GI50 [5]: > 100 µM (inactive)
GI50 [6]: > 100 µM (inactive)
GI50 [7]: > 100 µM (inactive)
GI50 [8]: > 100 µM (inactive)
GI50 [9]: > 100 µM (inactive)
GI50 [10]: > 100 µM (inactive)
GI50 [11]: > 100 µM (inactive)
GI50 [12]: 51.3 µM (inactive)
GI50 [13]: > 100 µM (inactive)
GI50 [14]: > 100 µM (inactive)
GI50 [15]: > 100 µM (inactive)
GI50 [16]: > 100 µM (inactive)
GI50 [17]: > 100 µM (inactive)
GI50 [18]: > 100 µM (inactive)
GI50 [19]: > 100 µM (inactive)
GI50 [20]: > 100 µM (inactive)
GI50 [21]: > 100 µM (inactive)
GI50 [22]: > 100 µM (inactive)
GI50 [23]: > 100 µM (inactive)
GI50 [24]: > 100 µM (inactive)
GI50 [25]: > 100 µM (inactive)
GI50 [26]: > 100 µM (inactive)
GI50 [27]: > 100 µM (inactive)
GI50 [28]: > 100 µM (inactive)
GI50 [29]: > 100 µM (inactive)
GI50 [30]: > 100 µM (inactive)
GI50 [31]: > 100 µM (inactive)
GI50 [32]: > 100 µM (inactive)
GI50 [33]: 17.9 µM (inactive)
GI50 [34]: > 100 µM (inactive)
GI50 [35]: > 100 µM (inactive)
GI50 [36]: 82 µM (inactive)
GI50 [37]: > 100 µM (inactive)
GI50 [38]: > 100 µM (inactive)
GI50 [39]: > 100 µM (inactive)
GI50 [40]: > 100 µM (inactive)
GI50 [41]: > 100 µM (inactive)
GI50 [42]: > 100 µM (inactive)
GI50 [43]: 31 µM (inactive)
GI50 [44]: > 100 µM (inactive)
GI50 [45]: > 100 µM (inactive)
GI50 [46]: > 100 µM (inactive)
GI50 [47]: > 100 µM (inactive)
GI50 [48]: > 100 µM (inactive)
GI50 [49]: > 100 µM (inactive)
GI50 [50]: > 100 µM (inactive)
GI50 [51]: > 100 µM (inactive)
GI50 [52]: > 100 µM (inactive)

C=C(C)[C@@H]1CC[C@@H](C)[C@](O)([C@@H]2C[C@@H]([C@H](COC(=O)c3ccccc3)OC(=O)c3ccccc3)OC2=O)C1
GI50 [1]: > 100 µM (inactive)
GI50 [2]: > 100 µM (inactive)
GI50 [3]: > 100 µM
GI50 [4]: > 100 µM (inactive)
GI50 [5]: > 100 µM (inactive)
GI50 [6]: > 100 µM (inactive)
GI50 [7]: > 100 µM (inactive)
GI50 [8]: 46.1 µM (inactive)
GI50 [9]: > 100 µM (inactive)
GI50 [10]: > 100 µM (inactive)
GI50 [11]: > 100 µM (inactive)
GI50 [12]: 29 µM (inactive)
GI50 [13]: > 100 µM (inactive)
GI50 [53]: > 100 µM (inactive)
GI50 [14]: > 100 µM (inactive)
GI50 [15]: > 100 µM (inactive)
GI50 [16]: > 100 µM (inactive)
GI50 [17]: > 100 µM (inactive)
GI50 [18]: > 100 µM (inactive)
GI50 [19]: > 100 µM (inactive)
GI50 [20]: > 100 µM (inactive)
GI50 [21]: > 100 µM (inactive)
GI50 [22]: > 100 µM (inactive)
GI50 [23]: > 100 µM (inactive)
GI50 [24]: > 100 µM (inactive)
GI50 [26]: > 100 µM (inactive)
GI50 [27]: > 100 µM (inactive)
GI50 [28]: > 100 µM (inactive)
GI50 [29]: 39.1 µM (inactive)
GI50 [30]: > 100 µM (inactive)
GI50 [31]: > 100 µM (inactive)
GI50 [34]: > 100 µM (inactive)
GI50 [35]: > 100 µM (inactive)
GI50 [36]: > 100 µM (inactive)
GI50 [37]: > 100 µM (inactive)
GI50 [38]: 59.4 µM (inactive)
GI50 [39]: > 100 µM (inactive)
GI50 [40]: > 100 µM (inactive)
GI50 [41]: > 100 µM (inactive)
GI50 [42]: 24.9 µM (inactive)
GI50 [44]: > 100 µM (inactive)
GI50 [45]: > 100 µM (inactive)
GI50 [54]: > 100 µM (inactive)
GI50 [46]: > 100 µM (inactive)
GI50 [55]: 28 µM (inactive)
GI50 [56]: > 100 µM (inactive)
GI50 [47]: > 100 µM (inactive)
GI50 [48]: > 100 µM (inactive)
GI50 [49]: > 100 µM (inactive)
GI50 [50]: > 100 µM (inactive)
GI50 [57]: > 100 µM (inactive)
GI50 [51]: > 100 µM (inactive)
GI50 [58]: 54 µM (inactive)
GI50 [52]: > 100 µM (inactive)
GI50 [59]: > 100 µM (inactive)

COC(=O)C1CCCN1C(=O)C(Cc1cn(S(=O)(=O)c2ccc(C)cc2)cn1)NC(=O)OC(C)(C)C (stereo not drawn)
GI50 [2]: > 100 µM (inactive)
GI50 [3]: > 100 µM
GI50 [4]: > 100 µM (inactive)
GI50 [5]: > 100 µM (inactive)
GI50 [6]: > 100 µM (inactive)
GI50 [8]: > 100 µM (inactive)
GI50 [9]: > 100 µM (inactive)
GI50 [10]: > 100 µM (inactive)
GI50 [11]: > 100 µM (inactive)
GI50 [12]: > 100 µM (inactive)
GI50 [53]: > 100 µM (inactive)
GI50 [14]: > 100 µM (inactive)
GI50 [16]: > 100 µM (inactive)
GI50 [17]: > 100 µM (inactive)
GI50 [18]: > 100 µM (inactive)
GI50 [19]: > 100 µM (inactive)
GI50 [20]: > 100 µM (inactive)
GI50 [21]: > 100 µM (inactive)
GI50 [22]: > 100 µM (inactive)
GI50 [23]: > 100 µM (inactive)
GI50 [26]: > 100 µM (inactive)
GI50 [27]: > 100 µM (inactive)
GI50 [28]: > 100 µM (inactive)
GI50 [29]: > 100 µM (inactive)
GI50 [30]: > 100 µM (inactive)
GI50 [31]: > 100 µM (inactive)
GI50 [32]: > 100 µM (inactive)
GI50 [33]: > 100 µM (inactive)
GI50 [34]: > 100 µM (inactive)
GI50 [35]: > 100 µM (inactive)
GI50 [36]: > 100 µM (inactive)
GI50 [37]: > 100 µM (inactive)
GI50 [39]: > 100 µM (inactive)
GI50 [40]: > 100 µM (inactive)
GI50 [42]: > 100 µM (inactive)
GI50 [43]: > 100 µM (inactive)
GI50 [44]: > 100 µM (inactive)
GI50 [45]: > 100 µM (inactive)
GI50 [54]: > 100 µM (inactive)
GI50 [55]: > 100 µM (inactive)
GI50 [56]: > 100 µM (inactive)
GI50 [47]: > 10 µM (inactive)
GI50 [49]: > 100 µM (inactive)
GI50 [50]: > 100 µM (inactive)
GI50 [58]: > 100 µM (inactive)
GI50 [59]: > 100 µM (inactive)
